Key:
Type in all cases: cell-based
[1] = tested on: BALB/3T3 (normal mouse fibroblasts); assay: In vitro cytotoxicity, SRB assay, normal BALB/3T3 fibroblasts; details: Table 5; BALB/3T3 normal mouse fibroblasts; read-out: IC50 (nM) BALB3T3 normal cells
[2] = tested on: A2780Cis (cisplatin-resistant human ovarian cancer); assay: In vitro cytotoxicity, SRB assay, A2780Cis; details: for IC50: Homo sapiens, A2780cis, read-out: IC50 (nM) A2780Cis
[3] = tested on: MV-4-11 (human biphenotypic leukaemia); assay: In vitro cytotoxicity, MTT assay, MV-4-11; details: for IC50: Homo sapiens, MV4-11, read-out: IC50 (nM) MV4-11

Compound | IC50 [1] [nM] | SI A2780Cis [2] | IC50 [2] [nM] | SI MV4-11 [3] | IC50 [3] [nM]
C#CC(C)(C)OC(=O)N[C@@H]1C=C[C@]2(O[C@H]([C@@H](CC)C(=O)[C@@H](C)[C@@H](O)[C@H](C)[C@@H]3O[C@@H]([C@@H](CC)C(=O)O)CC[C@@H]3C)[C@@H](C)C[C@H]2C)O[C@@]12CC[C@@](C)([C@H]1CC[C@](O)(CC)[C@H](C)O1)O2 [FLC-00552-1•Na] | 187 | 46.7 | 4.02 | 32.1 | 5.84
CC[C@@H](C(=O)[C@@H](C)[C@@H](O)[C@H](C)[C@@H]1O[C@@H]([C@@H](CC)C(=O)O)CC[C@@H]1C)[C@H]1O[C@]2(C=C[C@@H](NC(=O)N3CCC3)[C@]3(CC[C@@](C)([C@H]4CC[C@](O)(CC)[C@H](C)O4)O3)O2)[C@H](C)C[C@@H]1C [FLC-00543-1•Na] | 1020 | 15.2 | 67 | 5.9 | 174
CC[C@@H](C(=O)[C@@H](C)[C@@H](O)[C@H](C)[C@@H]1O[C@@H]([C@@H](CC)C(=O)O)CC[C@@H]1C)[C@H]1O[C@]2(C=C[C@@H](NC(=O)N(C)C)[C@]3(CC[C@@](C)([C@H]4CC[C@](O)(CC)[C@H](C)O4)O3)O2)[C@H](C)C[C@@H]1C [FLC-00538-1•Na] | 943 | 22.4 | 42.2 | 9.2 | 103
CC[C@@H](C(=O)[C@@H](C)[C@@H](O)[C@H](C)[C@@H]1O[C@@H]([C@@H](CC)C(=O)O)CC[C@@H]1C)[C@H]1O[C@]2(C=C[C@@H](NC(=O)CC(C)(C)C)[C@]3(CC[C@@](C)([C@H]4CC[C@](O)(CC)[C@H](C)O4)O3)O2)[C@H](C)C[C@@H]1C [FLC-00534-1•Na] | 64.9 | 50.7 | 1.28 | 42.4 | 1.53
CC[C@@H](C(=O)[C@@H](C)[C@@H](O)[C@H](C)[C@@H]1O[C@@H]([C@@H](CC)C(=O)O)CC[C@@H]1C)[C@H]1O[C@]2(C=C[C@@H](NC(=O)OCCN3CCOCC3)[C@]3(CC[C@@](C)([C@H]4CC[C@](O)(CC)[C@H](C)O4)O3)O2)[C@H](C)C[C@@H]1C [FLC-00570-1•Na] | 636 | 21.2 | 30 | 14.6 | 43.7
CC[C@@H](C(=O)[C@@H](C)[C@@H](O)[C@H](C)[C@@H]1O[C@@H]([C@@H](CC)C(=O)O)CC[C@@H]1C)[C@H]1O[C@]2(C=C[C@@H](NC(=O)N3CCN(S(C)(=O)=O)C3=O)[C@]3(CC[C@@](C)([C@H]4CC[C@](O)(CC)[C@H](C)O4)O3)O2)[C@H](C)C[C@@H]1C [FLC-00519-1•Na] | 6370 | 5.3 | 1190 | 4.0 | 1590
CC[C@@H](C(=O)[C@@H](C)[C@@H](O)[C@H](C)[C@@H]1O[C@@H]([C@@H](CC)C(=O)O)CC[C@@H]1C)[C@H]1O[C@]2(C=C[C@@H](NS(=O)(=O)c3cccs3)[C@]3(CC[C@@](C)([C@H]4CC[C@](O)(CC)[C@H](C)O4)O3)O2)[C@H](C)C[C@@H]1C [FLC-00505-1•Na] | 116 | 15.2 | 7.61 | 8.3 | 14
CC[C@@H](C(=O)[C@@H](C)[C@@H](O)[C@H](C)[C@@H]1O[C@@H]([C@@H](CC)C(=O)O)CC[C@@H]1C)[C@H]1O[C@]2(C=C[C@@H](NC(=O)OC3CCOCC3)[C@]3(CC[C@@](C)([C@H]4CC[C@](O)(CC)[C@H](C)O4)O3)O2)[C@H](C)C[C@@H]1C [FLC-00580-1•Na] | 211 | 94.4 | 2.24 | 32.5 | 6.51
CC[C@@H](C(=O)[C@@H](C)[C@@H](O)[C@H](C)[C@@H]1O[C@@H]([C@@H](CC)C(=O)O)CC[C@@H]1C)[C@H]1O[C@]2(C=C[C@@H](NC(=O)OCc3cc(Cl)cc(Cl)c3)[C@]3(CC[C@@](C)([C@H]4CC[C@](O)(CC)[C@H](C)O4)O3)O2)[C@H](C)C[C@@H]1C [FLC-00485-1•Na] | 106 | 23.0 | 4.62 | 5.3 | 20
